These results are taken from US5149704A, “Platelet activating antagonists” (Abbott Laboratories, priority 1991, dated 1992).

Counter-ions that a name gives are not always drawn.

T1 sequence (G1TEI7 1-342): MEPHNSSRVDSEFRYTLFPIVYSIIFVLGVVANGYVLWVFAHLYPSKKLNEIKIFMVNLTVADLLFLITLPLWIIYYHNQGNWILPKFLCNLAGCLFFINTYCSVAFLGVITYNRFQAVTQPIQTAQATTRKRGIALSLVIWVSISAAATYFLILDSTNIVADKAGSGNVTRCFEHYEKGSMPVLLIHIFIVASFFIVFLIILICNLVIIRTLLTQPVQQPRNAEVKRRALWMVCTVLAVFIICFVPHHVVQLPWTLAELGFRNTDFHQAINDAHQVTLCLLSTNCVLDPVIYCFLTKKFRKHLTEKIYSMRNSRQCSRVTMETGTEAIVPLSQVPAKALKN

The assay addresses T1, PAF receptor (Oryctolagus cuniculus, UniProt G1TEI7).
T1 construct: platelet membranes were prepared by centrifugation and washing; tissue Pel-Freez (Rogers, AR); host or cells: rabbit platelets from citrated whole blood (membranes)
The assay is described as follows: PAF receptor binding assay ([^3 H]C18 -PAF, rabbit platelet membranes). Particulars: 0.6 nM [^3 H]C18 -PAF, 60 min, 22-23 °C, Ki from IC50 by Cheng and Prusoff. The method, then: The ability of representative compounds of the present invention to inhibit PAF activity was determined in an in vitro test using the following method. Citrated whole rabbit blood was obtained from Pel-Freez (Rogers, AR). Rabbit platelets were prepared by centrifugation and washing. The platelets were lysed by freeze-thawing and sonication; platelet membranes were prepared by centrifugation and washing. Final membrane preparations were stored frozen in 10 mM Tris/5 mM MgCl2 /2 mM EDTA (TME buffer, pH 7.0) with 0.25M sucrose added for membrane stabilization. […] The final volume of the assay was 100 μl. The assay was conducted in […] (Millipore Corp.) filtration plates; incubation time was for 60 minutes at room temperature (22°-23° C.). "Specific binding" was operationally defined as the arithmetic difference between "total binding" of 0.6 nM [^3 H]C18 -PAF (in the absence of added PAF) and "nonspecific binding" (in the presence of 1 μM PAF). After the prescribed incubation, platelet membranes were filtered under vacuum, and washed with 1 millilitre of "binding buffer". The filters were dried and removed. The bound radioactivity was quantitated with a Berthold TLC-Linear Analyzer model LB2842. Dose-response curves of inhibition of specific [^3 H]C18 -PAF binding by test compounds were conducted in triplicate, with at least four doses covering the active range. Experiments were repeated at least once. IC50 values (concentration producing 50% inhibition) were determined by point-to-point evaluation. Ki values of inhibitory binding constants were calculated according to the method of Cheng and Prusoff [Biochem. Pharmacol. 22 (1973) 3099-3108] whereby [formula] The values of Ki for representative compounds of the present invention appear in Table 1.
A word on the Ki: it is a measure of affinity in units of concentration, obtained from inhibition or displacement. Higher therefore signals lower affinity. The compound `COc1cc(C(=O)c2cccc(NC[C@H]3CC[C@@H](c4cccnc4)N3)c2)cc(OC)c1OC` (relative stereo) [13 (cis), N-[3-(3,4,5-trimethoxybenzoyl)phenyl][2-(3-pyridyl)-pyrrolidin-5-yl]methylamine] showed a Ki of 2300 nM.

In turn, `COc1cc(C(=O)c2cccc(NC[C@H]3CC[C@H](c4cccnc4)N3)c2)cc(OC)c1OC` (relative stereo) [13 (trans), N-[3-(3,4,5-trimethoxybenzoyl)phenyl][2-(3-pyridyl)-pyrrolidin-5-yl]methylamine] registered a Ki of 8700 nM.

Compound `COc1cc(C(=O)c2cccc(NCC3CSC(c4cccnc4)N3C(=O)OC(C)(C)C)c2)cc(OC)c1OC` (single isomer, unassigned) [Example 1a] came in with a Ki of 6770 nM.

The compound `COc1cc(C(=O)c2cccc(NCC3CSC(c4cccnc4)N3C(=O)OC(C)(C)C)c2)cc(OC)c1OC` (single isomer, unassigned) [Example 1b] came in with a Ki of 13000 nM.

As to `COc1cc(C(=O)c2cccc(NCC3CSC(c4cccnc4)N3)c2)cc(OC)c1OC` (stereo not drawn) [Example 2, N-[3-(3,4,5-trimethoxybenzoylphenyl]2-(3-pyridinyl)thiazolid-4-ylmethylaminetrihydrochloride], the inhibitory constant (Ki) came to 10 nM.

With `CC(C)(C)OC(=O)N1C(CNc2cccc(C(=O)c3ccccc3)c2)CSC1c1cccnc1` (stereo not drawn) [Example 3, N-(3-benzoylphenyl)2-(3-pyridinyl)-3-tert-butoxycarbonylthiazolid-4-ylmethylamine], the affinity, expressed as Ki, was 8700 nM.

In turn, `O=C(c1ccccc1)c1cccc(NCC2CSC(c3cccnc3)N2)c1` (stereo not drawn) [Example 4, N-(3-benzoylphenyl)2-(3-pyridinyl)thiazolid-4-ylmethylamine] registered a Ki of 23 nM.

Take `O=C(c1ccccc1)c1cccc(NCC2CSC(c3cccnc3)N2)c1` (stereo not drawn) [Example 5, N-(3-benzoylphenyl)2-(3-pyridinyl)thiazolid-4-ylmethylamine trihydrochloride]: the Ki amounted to 38 nM.

In the case of `O=C(c1ccccc1)c1ccccc1NCC1CSC(c2cccnc2)N1` (stereo not drawn) [Example 6, N-(2-benzoylphenyl)2-(3-pyridinyl)thiazolid-4-ylmethylamine], the affinity corresponds to a Ki of 430 nM.

Compound `O=C(c1ccccc1)c1ccc(NCC2CSC(c3cccnc3)N2)cc1` (stereo not drawn) [Example 7, N-(4-benzoylphenyl)2-(3-pyridinyl)thiazolid-4-ylmethylamine] had a Ki of 1200 nM.

`c1ccc(Oc2ccc(NCC3CSC(c4cccnc4)N3)cc2)cc1` (stereo not drawn) [Example 8, N-(4-phenoxyphenyl)2-(3-pyridinyl)thiazolid-4-ylmethylamine] gave a Ki of 190 nM.

On to `CN1C(CNc2cccc(C(=O)c3ccccc3)c2)CSC1c1cccnc1` (stereo not drawn) [Example 9, N-(3-benzoylphenyl)[2-(3-pyridinyl)-3-methylthiazolid-4-yl]methylamine dihydrochloride], for which the affinity corresponds to a Ki of 1400 nM.

`O=C(c1ccccc1)c1cccc(NCC2CSC(c3cccnc3)S2)c1` (stereo not drawn) [Example 11, N-(3-benzoylphenyl)2-(3-pyridinyl)dithiolan-4-ylmethylamine]: the Ki was determined as 160 nM.

For the compound `CN(CC1CSC(c2cccnc2)N1)c1cccc(C(=O)c2ccccc2)c1` (stereo not drawn) [Example 12, N-(3-benzoylphenyl) N-methyl 2-(3-pyridinyl)thiazolid-4-ylmethylamine trihydrochloride], the affinity corresponds to a Ki of 3400 nM.

With `COc1cc(C(=O)c2cccc(NC(=O)NCC3CSC(c4cccnc4)N3)c2)cc(OC)c1OC` (stereo not drawn) [Example 14, N-[2-(3-pyridinyl)thiazolid-4-ylmethyl]-N'-[3-(3,4,5-trimethoxybenzoyl)phenyl]urea], the Ki is 110 nM.

`O=C(NCC1CSC(c2cccnc2)N1)Nc1cccc(C(=O)c2ccccc2)c1` (stereo not drawn) [Example 15, N-[2-(3-pyridinyl)thiazolid-4-ylmethyl]N'-(3-benzoylphenyl)urea dihydrochloride]: the Ki was found to be 150 nM.

Regarding `O=C(NCC1CSC(c2cccnc2)S1)Nc1cccc(C(=O)c2ccccc2)c1` (stereo not drawn) [Example 16, N-[2-(3-pyridinyl)dithiolan-4-ylmethyl]N'-(3-benzoylphenyl)urea], the Ki amounted to 750 nM.

Compound “N-[3-(3,4,5-trimethoxybenzoylphenyl]2-(3-pyridinyl)dithiolan-4-ylmethylamine dihydrochloride [Example 10]” yielded a Ki of 900 nM.
